Counter-ions that a name gives are not always drawn.
B1: rhASM: Recombinant human acid sphingomyelinase, enzyme replacement therapy for NP-A/B (protein, UniProt P17405 47-631, looked up)
Sphingomyelin …: LALSDSRVLWAPAEAHPLSPQGHPARLHRIVPRLRDVFGWGNLTCPICKGLFTAINLGLKKEPNVARVGSVAIKLCNLLKIAPPAVCQSIVHLFEDDMVEVWRRSVLSPSEACGLLLGSTCGHWDIFSSWNISLPTVPKPPPKPPSPPAPGAPVSRILFLTDLHWDHDYLEGTDPDCADPLCCRRGSGLPPASRPGAGYWGEYSKCDLPLRTLESLLSGLGPAGPFDMVYWTGDIPAHDVWHQTRQDQLRALTTVTALVRKFLGPVPVYPAVGNHESTPVNSFPPPFIEGNHSSRWLYEAMAKAWEPWLPAEALRTLRIGGFYALSPYPGLRLISLNMNFCSRENFWLLINSTDPAGQLQWLVGELQAAEDRGDKVHIIGHIPPGHCLKSWSWNYYRIVARYENTLAAQFFGHTHVDEFEVFYDEETLSRPLAVAFLAPSATTYIGLNPGYRVYQIDGNYSGSSHVVLDHETYILNLTQANIPGAIPHWQLLYRARETYGLPNTLPTAWHNLVYRMRGDMQLFQTFWFLYHKGHPPSEPCGTPCRLATLCAQLSARADSPALCRHLMPDGSLPEAQSLWPRPLFC

Experiments:
Type in all cases: cell-based, human
lysosomes in HDF cells [1] = assay: 2-IM in pharmacologically induced cell culture models for NP-A/B and NP-C; conditions: HDF cells from a healthy individual; 65 μM AH or 20 μM U18666A, 24 h
Experimental: Niemann Pick type A/B and C models were prepared according to the previous reported method. Cells were incubated with 65 μM of the acid sphingomyelinase (ASM) inhibitor amitriptyline (AH) and 20 μM of the NPC1 inhibitor U18666A for 24 h to create a NP-A/B and NP-C models respectively. The cells are pulsed with 2 μM of ChloropHoreLY and either 65 μM AH or 20 μM U18666A for 1 h, chased with either 65 μM AH or 20 μM U18666A for 9 h and then washed with 1×PBS and imaged.
Image analysis for pH and sensors. Images were analyzed with ImageJ/Fiji 2.0.0-rc-54/1.51h. pH and chloride measurements are performed as described previously. To generate a density plot to represent lysosomal populations, the individual D/A (Y-axis) versus the corresponding R/G (X-axis) values was first plotted for each lysosome that was obtained for a given fibroblast sample comprising ˜60 cells and ˜600 lysosomes. Density plots were generated using 2D Kernel Density plot on Origin 2018 SR1 b9.5.1.195 (OriginLab, USA). This converted the individual scatter points into a population matrix as a probability density function. The density plot is then pseudo colored to represent high density in red (values close to 1) and low density in blue (values closer to 0). Those points with <10% probability on the plot were discarded. For normalization between days, the point of highest density (value =1) of normal HDF cells was designated as the center of the plot with x,y coordinates (1,1). To normalize between experiments done on different days, the lysosomal pH and Cl− of a sample of normal HDF cells was always measured as well, the density plot of which served as the reference. All density plots acquired on the same day with the same settings were thus normalized to the HDF cell density plots to enable comparison of data across different days.

[2] = system: lysosomes of NP-C patient fibroblasts; assay: Lysosomal population rescue using β-CD in NP-C patient fibroblasts (2-IM); conditions: NP-C patient samples mutated in NPC1 or NPC2, 50 μM, 24 h
Experimental: (§1) Lysosomal population rescue using ASM and β-CD. Recombinant human acid sphingomyelinase was incubated with NP-A/B patient cells according to the previous method. Primary human fibroblasts derived from NP-A/B patients were maintained in DMEM medium with 1% FBS for 24 h. The medium was then changed to DMEM with 1% FBS containing 0.2% BSA and 5 μg of rhASM. After 24 h, the cells are pulsed with 2 μM of ChloropHoreLy for 1 h, chased for 9 h and then washed with 1×PBS and imaged. Primary human fibroblasts from NP-C patient were incubated with 50 μM of o-Hydroxypropyl-β-cyclodextrin (β-CD) for 24 h. The cells are pulsed with 2 μM of ChloropHoreLy and 50 μM of β-CD for 1 h, chased with 50 μM of β-CD for 9 h and then washed with 1×PBS and imaged.
(§2) Image analysis for pH and sensors. Images were analyzed with ImageJ/Fiji 2.0.0-rc-54/1.51h. pH and chloride measurements are performed as described previously. To generate a density plot to represent lysosomal populations, the individual D/A (Y-axis) versus the corresponding R/G (X-axis) values was first plotted for each lysosome that was obtained for a given fibroblast sample comprising ˜60 cells and ˜600 lysosomes. […] To normalize between experiments done on different days, the lysosomal pH and Cl− of a sample of normal HDF cells was always measured as well, the density plot of which served as the reference. […]

lysosomes in HDF cells [3] = assay: 2-IM upon addition of lysosomal proton pump and ion channel blocker; conditions: ChloropHoreLy labelled, 500 nM bafilomycin A1 or 300 μM NPPB, 45 min
Experimental: Lysosomal pH and chloride measurements. Fibroblast cells are pulsed with 2 μM of I^mLy, ChloropHore or ChloropHoreLy for 1 h, chased for 9 h (30 min pulse and 1 h chase for J774. A1, BHK-21 and T47D cells) and then washed with 1×PBS and subjected for imaging.
2-IM upon addition of lysosomal proton pump and ion channel blocker. Upon lysosome labeling, final concentration of 500 nM bafilomycinA1 and 300 μM of 5-nitro-2-(3-phenylpropyl-amino) benzoic acid (NPPB) were added to cells and incubated for 45 min. Cells was then washed with PBS and imaged in Hank's Balanced Salt Solution (HBSS) containing the respective blocker compounds.
as §2, with “lysosomes. Density plots were generated using 2D Kernel Density plot on Origin 2018 SR1 b9.5.1.195 (OriginLab, USA).” for “lysosomes.”

[4] = system: lysosomes of NP-A and NP-B patient fibroblasts; assay: Lysosomal population rescue using ASM in NP-A/B patient fibroblasts (2-IM); conditions: 5 μg rhASM, 24 h
Experimental: as §1, §2

Molecule	high chloride, high acidity lysosome population (2-IM profile) (lysosomes in HDF cells [1])	lysosome population in 2-IM profile (lysosomes in HDF cells [1])	high Cl-, high acidity lysosome population (2-IM profile) (lysosomes in HDF cells [3])	further results
CCN(CC)CCO[C@H]1CC[C@@]2(C)C(=CC[C@@H]3[C@@H]2CC[C@]2(C)C(=O)CC[C@@H]32)C1 [U18666A]	depletion	monodisperse	–	–
CN(C)CCC=C1c2ccccc2CCc2ccccc21 [amitriptyline hydrochloride]	depletion	monodisperse	–	–
o-2-hydroxypropyl-β-cyclodextrin [RCD]	–	–	–	lysosomes with higher lumenal Cl- and H+ content (2-IM profile) [2]: appearance; monodispersity of the 2-IM profile [2]: loss of monodispersity
O=C(O)c1cc([N+](=O)[O-])ccc1NCCCc1ccccc1 [5-nitro-2-(3-phenylpropylamino) benzoic acid]	–	–	lost	–
CO/C1=C\C(C)=C\[C@@H](C)[C@@H](O)[C@@H](C)C/C(C)=C/C=C/[C@H](OC)[C@@H]([C@@H](C)[C@@H](O)[C@H](C)[C@@]2(O)C[C@@H](O)[C@H](C)[C@@H](C(C)C)O2)OC1=O [bafilomycin Al]	–	–	lost	–
B1	–	–	–	high chloride, high acidity lysosome population (2-IM profile) [4]: reemergence
